This note sets out measurements from patent US20170314033A1, “HERBICIDE-RESISTANT TARAXACUM KOK-SAGHYZ AND TARAXACUM BREVICORNICULATUM” (Ohio State Innovation Foundation, priority 2016, published 2017).

SMILES strings stand for the structures.

The subject of assay [1] is wild-type plants (dandelions). Nature of the assay: glufosinate exposure of wild-type dandelions. The class given is in vivo. The following applies: FIG. 11. The source says:
FIG. 11: Comparison of wild-type dandelions and exemplary herbicide-resistant rubber-producing dandelions after exposure to herbicide.

The subject of assay [2] is transgenic herbicide-resistant rubber-producing dandelions expressing the bar gene. Nature of the assay: glufosinate treatment of mature transgenic (bar gene) plants. The class given is in vivo, Taraxacum kok-saghyz and Taracum brevicorniculatum. The following applies: for survival rate: formulated under the brand BASTA, mature transgenic plants. An excerpt:
Applicants show the successful generation of rubber-producing dandelions species, which display resistance to broad leaf herbicide glufosinate. Using similar methods as described in Example 1, transgenic plants were generated using Agrobacterium tumafaciens-mediated transformation of leaf discs or root fragments, followed by regeneration of transgenic plants, which were then acclimated and transferred to pots within greenhouses. The bar gene, was expressed singly or in combination with other genes of interest in two rubber-producing dandelion species, Taraxacum kok-saghyz and Taracum brevicorniculatum. Table 1 describes the list of gene constructs used for the generation of transgenic herbicide-resistant dandelions.
Confirmation of a transgenic event was validated by PCR and resistance confirmed through treatment of mature transgenic plants with varying doses of glufosinate (e.g., 25 mg/L, 50 mg/L, 100 mg/L, 200 mg/L, etc.) formulated under the brand BASTA®. Treatment of plants with glufosinate at 25 mg/L yielded a 100% survival rate, 50 mg/L yielded a 50% survival rate, 150 mg/L yielded a 100% survival rate, and 200 mg/L yielded a 50% survival rate.

The subject of assay [3] is non-transgenic TK. In words: kanamycin selection, elimination of non-transgenic TK. The class given is in vivo, Taraxacum kok-saghyz. The settings on record: ½ MS medium, data not shown. The procedure: (§1) Roots then were blotted dry on filter paper and transferred to co-culture medium (solid 1⁄2 MS medium with 200 μm acetosyringone). After 3 days of co-culture with agrobacteria, root fragments were washed sequentially with water and liquid 1⁄2 MS medium with 400 mg L^-1 Timentin, and then transferred to solid 1⁄2 MS medium with 400 mg L^-1 Timentin. […] After 3 weeks further selection, transgene events were validated in selected plants. Root fragments of TK and TB were also inoculated with A. rhizogenes […] wild type using the same method. After recovery, root fragments were transferred to 1⁄2 MS medium with 400 mg L^-1 Timentin for regeneration. Approximately 30 root fragments were used for each replicate and three replicates were used for each treatment. […] Transgene presence was validated by PCR analysis (FIGS. 5A and B) and transgene expression at the transcription level was confirmed by RT-PCR (FIGS. 6A and B) using leaf tissue.

Assay [4] concerns non-transgenic TB. In words: kanamycin selection, elimination of non-transgenic TB. In kind it is in vivo, T. brevicorniculatum. The settings on record: ½ MS medium, data not shown. On the procedure: as §1

Take `CP(=O)(O)CCC(N)C(=O)O` (stereo not drawn) [glufosinate]: in assay [1], the “injury when exposed to glufosinate” value is recorded as “significant injury and/or death”. The “herbicide tolerance after exposure to glufosinate” value in assay [2] (exemplary dandelions of the invention, FIG. 11) is given as “varying degrees herbicide tolerance”. In assay [2] (exemplary plant of the invention, FIGS. 9-10), the “injury as a result of exposure to glufosinate” value was “little to no injury”. For the same compound, the survival rate is listed as 100% in assay [2] (glufosinate at 25 mg/L), 50% in assay [2] (glufosinate at 50 mg/L), 100% in assay [2] (glufosinate at 150 mg/L) and 50% in assay [2] (glufosinate at 200 mg/L).
`NC[C@H]1O[C@H](O[C@H]2[C@H](O)[C@@H](O[C@H]3O[C@H](CO)[C@@H](O)[C@H](N)[C@H]3O)[C@H](N)C[C@@H]2N)[C@H](O)[C@@H](O)[C@@H]1O` [kanamycin]: the “kanamycin concentration effective at eliminating non-transgenic plants” value was 10 mg/L in assay [3] and 20 mg/L in assay [4].
